According to patent US20250145594A1, “MODULATORS OF THE INTEGRATED STRESS PATHWAY” (Calico Life Sciences LLC, priority 2020, published 2025):
pEC50: −log10 of the molar value.

system: ATF4 luciferase reporter in HEK293T cells; assay: ATF4-Luc assay (in vitro model of VWMD); type: cell-based, human; settings: Homo sapiens, HEK-293T, 7 h, HEK293T cells carrying the ATF4 luciferase reporter, 1 μg/mL tunicamycin, One Glo luminescence
Summary of the method: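 Stable HEK293T line expressing firefly luciferase behind the human ATF4 5′-UTR, treated with 1 μg/mL tunicamycin plus compound for 7 hours. Luminescence read with One Glo; EC50 determined.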

SMILES	pEC50
O=C(NC12CC(n3cc(OCCOCC(F)(F)F)cn3)(C1)C2)[C@H]1C[C@@H](O)c2cc(Cl)ccc2O1 [Compound 425, (2R,4R)-6-chloro-4-hydroxy-N-(3-{4-[2-(2,2,2-trifluoroethoxy)ethoxy]-1H-pyrazol-1-yl}bicyclo[1.1.1]pentan-1-yl)-3,4-dihydro-2H-1-benzopyran-2-carboxamide]	> 8.00
COCCOc1cnn(C23CC(NC(=O)[C@H]4C[C@@H](O)c5cc(Cl)ccc5O4)(C2)C3)c1 [Compound 426, (2R,4R)-6-chloro-4-hydroxy-N-{3-[4-(2-methoxyethoxy)-1H-pyrazol-1-yl]bicyclo[1.1.1]pentan-1-yl}-3,4-dihydro-2H-1-benzopyran-2-carboxamide]	6.30 to 6.60
O=C(NC12CC(c3ccnc(OCCCOC(F)(F)F)c3)(C1)C2)[C@H]1C[C@@H](O)c2cc(Cl)c(F)cc2O1 [Compound 427, (2R,4R)-6-chloro-7-fluoro-4-hydroxy-N-(3-{2-[3-(trifluoromethoxy)propoxy]pyridin-4-yl}bicyclo[1.1.1]pentan-1-yl)-3,4-dihydro-2H-1-benzopyran-2-carboxamide]	> 8.00
O=C(NC12CC(c3ccnc(OCCCOC(F)(F)F)c3)(C1)C2)[C@H]1C[C@@H](O)c2cc(Cl)ccc2O1 [Compound 428, (2R,4R)-6-chloro-4-hydroxy-N-(3-{2-[3-(trifluoromethoxy)propoxy]pyridin-4-yl}bicyclo[1.1.1]pentan-1-yl)-3,4-dihydro-2H-1-benzopyran-2-carboxamide]	> 8.00
O=C(NC12CC(n3cc(OCCOC(F)(F)F)cn3)(C1)C2)[C@H]1C[C@@H](O)c2cc(F)c(F)cc2O1 [Compound 429, (2R,4R)-6,7-difluoro-4-hydroxy-N-(3-{4-[2-(trifluoromethoxy)ethoxy]-1H-pyrazol-1-yl}bicyclo[1.1.1]pentan-1-yl)-3,4-dihydro-2H-1-benzopyran-2-carboxamide]	> 8.00
CN(CCCOC(F)(F)F)c1cnn(C23CC(NC(=O)[C@H]4C[C@@H](O)c5cc(Cl)ccc5O4)(C2)C3)c1 [Compound 430, (2R,4R)-6-chloro-4-hydroxy-N-[3-(4-{methyl[3-(trifluoromethoxy)propyl]amino}-1H-pyrazol-1-yl)bicyclo[1.1.1]pentan-1-yl]-3,4-dihydro-2H-1-benzopyran-2-carboxamide]	7.30 to 8.00
O=C(NC12CC(n3cc(OCCCOC(F)(F)F)cn3)(C1)C2)[C@H]1C[C@@H](O)c2cc(Cl)ccc2O1 [Compound 431, (2R,4R)-6-chloro-4-hydroxy-N-(3-{4-[3-(trifluoromethoxy)propoxy]-1H-pyrazol-1-yl)bicyclo[1.1.1]pentan-1-yl)-3,4-dihydro-2H-1-benzopyran-2-carboxamide]	> 8.00
O=C(NC12CC(n3cc(OCCOC(F)(F)F)cn3)(C1)C2)[C@@H]1C[C@@H](O)c2cc(Cl)c(F)cc2O1 [Compound 432, (2S,4R)-6-chloro-7-fluoro-4-hydroxy-N-(3-{4-[2-(trifluoromethoxy)ethoxy]-1H-pyrazol-1-yl}bicyclo[1.1.1]pentan-1-yl)-3,4-dihydro-2H-1-benzopyran-2-carboxamide]	> 8.00
O=C(NC12CC(n3cc(OCCCOC(F)(F)F)cn3)(C1)C2)[C@H]1C[C@@H](O)c2cc(Cl)c(F)cc2O1 [Compound 433, (2R,4R)-6-chloro-7-fluoro-4-hydroxy-N-(3-{4-[3-(trifluoromethoxy)propoxy]-1H-pyrazol-1-yl}bicyclo[1.1.1]pentan-1-yl)-3,4-dihydro-2H-1-benzopyran-2-carboxamide]	> 8.00
O=C(NC12CC(n3cc(OCCOC(F)(F)F)cn3)(C1)C2)[C@@H]1C[C@@H](O)c2cc(Cl)c(Cl)cc2O1 [Compound 434, (2S,4R)-6,7-dichloro-4-hydroxy-N-(3-{4-[2-(trifluoromethoxy)ethoxy]-1H-pyrazol-1-yl}bicyclo[1.1.1]pentan-1-yl)-3,4-dihydro-2H-1-benzopyran-2-carboxamide]	> 8.00
O=C(NC12CC(n3cc(OCCCOC(F)(F)F)cn3)(C1)C2)[C@H]1C[C@@H](O)c2cc(C(F)(F)F)ccc2O1 [Compound 435, (2R,4R)-4-hydroxy-N-(3-{4-[3-(trifluoromethoxy)propoxy]-1H-pyrazol-1-yl}bicyclo[1.1.1]pentan-1-yl)-6-(trifluoromethyl)-3,4-dihydro-2H-1-benzopyran-2-carboxamide]	> 8.00
O=C(NC12CC(n3cc(OCCOC(F)(F)F)cn3)(C1)C2)[C@H]1C[C@H](O)c2cc(Cl)c(Cl)cc2O1 [Compound 436, (2R,4S)-6,7-dichloro-4-hydroxy-N-(3-{4-[2-(trifluoromethoxy)ethoxy]-1H-pyrazol-1-yl}bicyclo[1.1.1]pentan-1-yl)-3,4-dihydro-2H-1-benzopyran-2-carboxamide]	> 8.00
O=C(NC12CC(n3cc(NCCOC(F)(F)F)cn3)(C1)C2)[C@H]1C[C@@H](O)c2cc(Cl)ccc2O1 [Compound 437, (2R,4R)-6-chloro-4-hydroxy-N-[3-(4-{[2-(trifluoromethoxy)ethyl]amino}-1H-pyrazol-1-yl)bicyclo[1.1.1]pentan-1-yl]-3,4-dihydro-2H-1-benzopyran-2-carboxamide]	7.30 to 8.00
O=C(NC12CC(c3ccc(OCCCOC(F)(F)F)nc3)(C1)C2)[C@H]1C[C@@H](O)c2cc(Cl)ccc2O1 [Compound 438, (2R,4R)-6-chloro-4-hydroxy-N-(3-{6-[3-(trifluoromethoxy)propoxy]pyridin-3-yl}bicyclo[1.1.1]pentan-1-yl)-3,4-dihydro-2H-1-benzopyran-2-carboxamide]	7.30 to 8.00
C[C@@H](COC(F)(F)F)Oc1cnn(C23CC(NC(=O)[C@H]4C[C@@H](O)c5cc(Cl)ccc5O4)(C2)C3)c1 [Compound 439, (2R,4R)-6-chloro-4-hydroxy-N-[3-(4-{[(2S)-1-(trifluoromethoxy)propan-2-yl]oxy}-1H-pyrazol-1-yl)bicyclo[1.1.1]pentan-1-yl]-3,4-dihydro-2H-1-benzopyran-2-carboxamide]	> 8.00
C[C@H](COC(F)(F)F)Oc1cnn(C23CC(NC(=O)[C@H]4C[C@@H](O)c5cc(Cl)ccc5O4)(C2)C3)c1 [Compound 440, (2R,4R)-6-chloro-4-hydroxy-N-[3-(4-{[(2R)-1-(trifluoromethoxy)propan-2-yl]oxy}-1H-pyrazol-1-yl)bicyclo[1.1.1]pentan-1-yl]-3,4-dihydro-2H-1-benzopyran-2-carboxamide]	7.30 to 8.00
C[C@@H](COC(F)(F)F)Oc1cnn(C23CC(NC(=O)[C@H]4C[C@@H](O)c5cc(C(F)(F)F)ccc5O4)(C2)C3)c1 [Compound 441, (2R,4R)-4-hydroxy-N-[3-(4-{[(2S)-1-(trifluoromethoxy)propan-2-yl]oxy}-1H-pyrazol-1-yl)bicyclo[1.1.1]pentan-1-yl]-6-(trifluoromethyl)-3,4-dihydro-2H-1-benzopyran-2-carboxamide]	7.30 to 8.00
O=C(NC12CC(n3cc(OCCOC(F)(F)F)cn3)(C1)C2)[C@H]1C[C@@H](O)c2cc(Cl)c(Cl)cc2O1 [Compound 442, (2R,4R)-6,7-dichloro-4-hydroxy-N-(3-{4-[2-(trifluoromethoxy)ethoxy]-1H-pyrazol-1-yl}bicyclo[1.1.1]pentan-1-yl)-3,4-dihydro-2H-1-benzopyran-2-carboxamide]	> 8.00
C[C@@H](COc1cnn(C23CC(NC(=O)[C@H]4C[C@@H](O)c5cc(Cl)ccc5O4)(C2)C3)c1)OC(F)(F)F [Compound 443, (2R,4R)-6-chloro-4-hydroxy-N-(3-{4-[(2S)-2-(trifluoromethoxy)propoxy]-1H-pyrazol-1-yl}bicyclo[1.1.1]pentan-1-yl)-3,4-dihydro-2H-1-benzopyran-2-carboxamide]	7.30 to 8.00
O=C(NC12CC(n3cc(NCCCOC(F)(F)F)cn3)(C1)C2)[C@H]1C[C@@H](O)c2cc(Cl)ccc2O1 [Compound 444, (2R,4R)-6-chloro-4-hydroxy-N-[3-(4-{[3-(trifluoromethoxy)propyl]amino}-1H-pyrazol-1-yl)bicyclo[1.1.1]pentan-1-yl]-3,4-dihydro-2H-1-benzopyran-2-carboxamide]	> 8.00
C[C@@H](COC(F)(F)F)N(C)c1cnn(C23CC(NC(=O)[C@H]4C[C@@H](O)c5cc(Cl)ccc5O4)(C2)C3)c1 [Compound 445, (2R,4R)-6-chloro-4-hydroxy-N-[3-(4-{methyl[(2S)-1-(trifluoromethoxy)propan-2-yl]amino}-1H-pyrazol-1-yl)bicyclo[1.1.1]pentan-1-yl]-3,4-dihydro-2H-1-benzopyran-2-carboxamide]	5.70 to 6.30
O=C(NC12CC(c3ccc(OCCOC(F)(F)F)nc3)(C1)C2)[C@H]1C[C@@H](O)c2cc(Cl)c(F)cc2O1 [Compound 446, (2R,4R)-6-chloro-7-fluoro-4-hydroxy-N-(3-{6-[2-(trifluoromethoxy)ethoxy]pyridin-3-yl}bicyclo[1.1.1]pentan-1-yl)-3,4-dihydro-2H-1-benzopyran-2-carboxamide]	7.30 to 8.00
O=C(N[C@H]1CC[C@H](n2cc(OCCOC(F)(F)F)cn2)CC1)[C@H]1C[C@H](O)c2cc(Cl)ccc2O1 [Compound 447, (2R,4S)-6-chloro-4-hydroxy-N-[(1r,4R)-4-{4-[2-(trifluoromethoxy)ethoxy]-1H-pyrazol-1-yl}cyclohexyl]-3,4-dihydro-2H-1-benzopyran-2-carboxamide]	6.60 to 7.30
C[C@H](COC(F)(F)F)N(C)c1cnn(C23CC(NC(=O)[C@H]4C[C@@H](O)c5cc(Cl)ccc5O4)(C2)C3)c1 [Compound 448, (2R,4R)-6-chloro-4-hydroxy-N-[3-(4-{methyl[(2R)-1-(trifluoromethoxy)propan-2-yl]amino}-1H-pyrazol-1-yl)bicyclo[1.1.1]pentan-1-yl]-3,4-dihydro-2H-1-benzopyran-2-carboxamide]	5.70 to 6.30
O=C(NC12CC(c3ccc(OCCOC(F)(F)F)nc3)(C1)C2)[C@H]1C[C@@H](O)c2cc(Cl)ccc2O1 [Compound 450, (2R,4R)-6-chloro-4-hydroxy-N-(3-{6-[2-(trifluoromethoxy)ethoxy]pyridin-3-yl}bicyclo[1.1.1]pentan-1-yl)-3,4-dihydro-2H-1-benzopyran-2-carboxamide]	6.60 to 7.30
